Source: patent US5698535A, “SIN-1A cyclodextrin inclusion complexes” (priority 1994, dated 1997)
Read-outs that look alike come from different tables or passages of the source. Each block holds one molecule with its values, some of them ahead of it.

Assays:
[1] = tested on: rabbit platelet rich plasma; assay: Inhibition of U-46619 induced platelet aggregation in rabbit platelet rich plasma; assay type: cell-based
Description: (§1) The platelet aggregation was studied in rabbit and human platelet rich plasma (J. Cardiovasc. Pharmacol. 14 suppl. 11; page 120, 1989). In each batch of platelet rich rabbit plasma 8 dose response curves were registered with the thromboxane mimetic U-46619 (0.25-4.0 μM) in the presence of 0, 10^-7, 10^-6 or 10^-5 moles of SIN-1A/βCD complex. The dose response curves were performed in random sequence.

[2] = tested on: human platelet rich plasma; assay: Inhibition of U46619 induced platelet aggregation in human citrate platelet rich plasma; assay type: cell-based
Description: as §1
Both amplitude and slope of the aggregation curve were evaluated.

[3] = known; SIN-1 in solid state, SIN-1A open-chain tautomer; cited from earlier work
[4] = prior art; cited from earlier work

IC50 ([1]; Oryctolagus cuniculus, rabbit platelet rich plasma, U46619 4 μM, n=7, read-out: pD2 (negative logarithm of concentration producing 50% inhibition) (converted)): 2690 nM | IC50 ([2]; Table 4, amplitude of aggregation curve, read-out: pD2, 50% inhibition of aggregation, amplitude (converted)): 15.8 µM | IC50 ([2]; Table 4, slope of aggregation curve, read-out: pD2, 50% inhibition of aggregation, slope (converted)): 14.1 µM
SMILES: N=c1c[n+](N2CCOCC2)[n-]o1 [SIN-1, 3-morpholino-sydnonimine]

SMILES: N#CCN(N=O)N1CCOCC1 [SIN-1A, N-morpholino-N-nitrosoaminoacetonitrile]
stability [3]: extremely unstable

SMILES: NCCCNCCCCN(CCCN)N(O)N=O [SPNO]
half-life [4]: 39 min

SMILES: CCN(CC)N(O)N=O [DEANO, diethylamine-nitric oxide adduct]
half-life [4]: about 2 minutes

SMILES: CCCCCC(O)/C=C/C1C2CC(CO2)C1C/C=C\CCCC(=O)O (stereo not shown) [U46619]
induction of platelet aggregation ([1]; thromboxane mimetic): concentration-related aggregation
